Data reported in PMC7560154, “Novel Antimicrobial Peptide from Temporin L in The Treatment of Staphylococcus pseudintermedius and Malassezia pachydermatis in Polymicrobial Inter-Kingdom Infection” (Antibiotics, 2020).
Where a SMILES comes first, the peptide text is derived from it. [ ]: non-standard residue; d: D form.

What was measured:
[1] = tested on: methicillin-susceptible S. pseudintermedius (MSSP); assay: Time-kill assay, MSSP; type: cell-based, Staphylococcus pseudintermedius
Protocol: Time kill assay was carried out as previously described. […] Plates were incubated at 37 °C on an orbital shaker at 120 rpm. Viability assessments were performed at 0, 2, 4, 6 and 24 h by plating 0.01 mL undiluted and 10-fold serially diluted samples onto Mueller–Hinton plates in triplicate. After overnight incubation at 37 °C, bacterial colonies were counted and compared with counts from control cultures.

M. pachydermatis = tested on: M. pachydermatis
Protocol: MIC of all compounds was determined in Sabouraud Dextrose broth with 1% tween 80 (SB) medium, for M. pachydermatis, and Mueller–Hinton broth (MH), for S. pseudintermedius, by the broth microdilution assay (BMD) in 96-well microtiter plates, as previously reported. Specifically, SB containing 1% Tween 80 was used instead of RPMI 1640 medium. All compounds were dissolved in ethanol and ketoconazole in dimethyl sulfoxide (DMSO). The solutions were serially diluted in SB and MH two-fold from 0.19 to 50 μM. M. pachydermatis suspension was prepared from 3-day-old colonies grown on Sabouraud agar at 30 °C. The final concentration of the yeast inoculum suspensions was equivalent to 1–3 × 10^3 CFU/mL. Bacterial suspensions were diluted to yield an optical density (OD) around 0.5 at 595 nm and further diluted to a final concentration of 1 × 10^6 CFU/mL. The compounds were added to the microbial suspension in each well yielding a final cell concentration of 5 × 10^5 CFU/mL. Positive controls included oxacillin 5 μM (2 μg/mL) and vancomycin 1.4 μM (2 μg/mL) for S. pseudintermedius or ketoconazole 0.2 μM (0.125 μg/mL) for M. pachydermatis. Negative control wells were set to contain bacteria in MH or yeasts in SB plus the amount of ethanol used to dilute each compound. Medium turbidity was measured by a microtiter plate reader (Tecan, Milan, Italy) at 595 nm after 24 h for S. pseudintermedius and 48 h for M. pachydermatis. Absorbance was proportional to microbial growth. The MIC was defined as the lowest concentration of drug that caused a prominent decrease (≥90% inhibition) in visible growth relative to that of the growth control.

`CC[C@H](C)[C@H](NC(=O)[C@H](CCCNC(=N)N)NC(=O)[C@@H](CCCCN)NC(=O)[C@@H](CC(C)C)NC(=O)[C@H](Cc1ccccc1)NC(=O)[C@H](CCCCN)NC(=O)[C@H](CO)NC(=O)[C@H](Cc1ccccc1)NC(=O)[C@H](Cc1c[nH]c2ccccc12)NC(=O)[C@@H]1CCCN1C(=O)[C@@H](NC(=O)[C@@H](N)Cc1ccccc1)C(C)C)C(=O)N[C@@H](CC(C)C)C(N)=O` [Peptide 8] (H-FVPWFSKF[dL][dK]RIL-NH2; N-terminus assumed) was tested, and the “Log10CFU/mL 0 h” value ([1]; peptide at MIC value, 37 °C, 0 h, three independent experiments in triplicate) was 5.45 ± 0.25 Log10CFU/mL, the “Log10CFU/mL 1 h” value ([1]; peptide at MIC value, 1 h) was 0.60 ± 0.12 Log10CFU/mL and the “Log10CFU/mL 2 h” value ([1]; peptide at MIC value, 2 h) was 0.58 ± 0.32 Log10CFU/mL. The “Log10CFU/mL 4 h” value ([1]; peptide at MIC value, 4 h) was 0.89 ± 0.15 Log10CFU/mL, the “Log10CFU/mL 6 h” value ([1]; peptide at MIC value, 6 h) was 0.46 ± 0.15 Log10CFU/mL and the “Log10CFU/mL 24 h” value ([1]; peptide at MIC value, 24 h) was 4.97 ± 0.30 Log10CFU/mL. The “Bactericidal or bacteriostatic activity” value ([1]; time-kill at MIC value) was “bacteriostatic”, the “MMC/MIC Ratio” value (M. pachydermatis; M. pachydermatis) was 1 and the “MMC Values (minimum mycocidal concentration)” value (M. pachydermatis; ≥3 log10 reduction in colony count from starting inoculum, agar 72 h at 30 °C) was 6.25 µM.
